Results as given in patent US20010053796A1, “Delta-aminolevulinic acid for prevention and treatment of infection microorganisms and parasite” (priority 2000, published 2001).

Key:
Staphylococcus epidermis [1] = experiment: Treatment effect of infected fry by oral administration in feed; format: in vivo, Sebastes schlegeli; details: 50 fish, Bastardhalibut
Method: (§1) In this example, fry of Bastardhalibut and Sebastes schlegeli (mean body weight 2 g), 50 per each breeding tank, were preliminary-bred for 1 week and stabilized. […] The artificial infection methods were carried out through the digestion method. Pathogenic organisms were applied into fish tanks and introduced into seawater for an hour, wherein the concentration of organisms adjusted to 10^4 CFU/mL. Treatment conditions are as follows; after artificial infection, infected fish were moved to fish tanks and kept in the infection period for 3 days. On the fourth day of infection, 0.1˜50 ppm of δ-aminolevulinic acid for feed were added. The fish were bred for 2 weeks after exchanging with clean seawater and the mortality of fish according to infection was monitored. In the control groups, after each bacteria were identically infected through digestion method, mortality of Bastardhalibut and Sebastes schlegeli according to bacteria infection was identified while breeding with marketing assorted feed without δ-aminolevulinic acid. As a result of this experiment, δ-aminolevulinic acid-treated groups have shown high viability in both Bastardhalibut (Table 20˜Table 23) and Sebastes schlegeli (Table 24˜Table 27).

Vibrio anguillarum = experiment: as above; format: in vivo, Sebastes schlegeli; details: 50 fish, Bastardhalibut
Method: as §1

Staphylococcus epidermis [2] = experiment: Prevention effect for artificial infection (abdominal injection of bacteria); format: in vivo, Bastardhalibut; details: for Mortality during Cultivation: dead of 20 fish
Method: The water temperature was maintained at 20° C. (±2° C. ) throughout the experiment. […]
Bastardhalibut and Sebastes schlegeli were infected by […] Staphylococcus epidermis through abdominal injection with the same method of fish breeding; δ-aminolevulinic acid treatment and artificial carried out in Experiment 1 and 2. Each experimental fish was moved to fish tanks for monitoring and monitored for mortality according to infection for 2 weeks. […] The treated group, with δ-aminolevulinic acid by tank administraion method and oral administration method, has shown high viability.

[3] = system: RTG-2 (Rainbow Trout Gonad); details: 24 h
Method: δ-aminolevulinic acid feed were prepared to 1.0 M concentration (0. 167 g/mL HBSS) and diluted by 10-fold dilution method. 100 μl of each fish cell line suspension of 2.5×10^5 were placed into 96-well microplate and then, 100 μl of each of the resulting diluted solution, 4 well/dilution unit, were added respectively. Fish cell lines, which were used for this cell toxicity experiment of δ-aminolevulinic acid, were RTG-2 (Rainbow Trout Gonad), FHM (Fathead Minnow Epithelioma) and CHSE (Chinook Salmon Embryo) lotted out from Dr. M. Yoshimizu of the Department of Fisheries, Hokkaido University, Japan. For these experimental cells, 100 U/mL penicillin (Sigma), 100 μl/mL streptomycin (Sigma) and MEM media supplemented with 5% fetal bovine serum (FBS, Gibco) for cell culture were used. Cultured cells in 96-well microplate was incubated for 3 hrs at 15° C. and δ-aminolevulinic acid were added to wells at amounts of 100 μl of 0, 1.0, 10, 50 and 100 mM and incubated for 24 hrs at 18° C. As a control group, instead of δ-aminolevulinic acid, HBSS was added at the same amount. […] Absorbance was measured with an ELISA reader at 570 μl.

[4] = feed 0.1 ppm from 4th day of infection
[5] = feed 1.0 ppm from 4th day of infection
[6] = feed 10 ppm from 4th day of infection
[7] = feed 50 ppm from 4th day of infection

## NCC(=O)CCC(=O)O [δ-aminolevulinic acid]
Staphylococcus epidermis [1]; [4]
  Viability: 36%
Staphylococcus epidermis [1]; [5]
  Viability: 63%
Staphylococcus epidermis [1]; [6]
  Viability: 64%
Staphylococcus epidermis [1]; [7]
  Viability: 86%
Vibrio anguillarum; [4]
  Viability: 50%
Vibrio anguillarum; [5]
  Viability: 74%
Vibrio anguillarum; [6]
  Viability: 84%
Vibrio anguillarum; [7]
  Viability: 86%
Staphylococcus epidermis [2]; orally, 0.1 ppm in feed
  Viability: 50%
  Mortality during Cultivation: 10
Staphylococcus epidermis [2]; orally, 1.0 ppm in feed
  Viability: 55%
  Mortality during Cultivation: 9
Staphylococcus epidermis [2]; orally, 10 ppm in feed
  Viability: 70%
  Mortality during Cultivation: 6
Staphylococcus epidermis [2]; orally, 100 ppm in feed
  Viability: 80%
  Mortality during Cultivation: 4
Staphylococcus epidermis [2]; to fish tanks, 0.01 ppm
  Viability: 55%
  Mortality during Cultivation: 9
Staphylococcus epidermis [2]; to fish tanks, 0.1 ppm
  Viability: 65%
  Mortality during Cultivation: 7
Staphylococcus epidermis [2]; to fish tanks, 1.0 ppm
  Viability: 65%
  Mortality during Cultivation: 7
Staphylococcus epidermis [2]; to fish tanks, 10 ppm
  Viability: 75%
  Mortality during Cultivation: 5
[3]
  safe range of toxicity: below 10 mM
